Laboratory results taken from patent publication US20240109900A1, “AZABICYCLIC SHP2 INHIBITORS” (IRBM S.P.A., priority 2021, published 2024).

Key:
[1] = test system: ERK phosphorylation in KYSE-520 cells; assay: Phospho-ERK cellular assay; type: cell-based; details: Homo sapiens, KYSE-520, 2 h, KYSE-520 cells, 2 h at 37° C., phospho-ERK1/2 (Thr202/Tyr204) TR-FRET; read-out: PERK IC50
Experimental: ERK phosphorylation was detected using the “Advanced phospho-ERK1/2 (Thr202/Tyr204)” TR-FRET kit (Cisbio, Cat #64AERPEG/H), following the manufacturer reagents and instructions.
Briefly, 20.000/well KYSE-520 cells (DSMZ ACC 371) were plated in 6 μL RPMI-1640 (Invitrogen) growth medium, into 384 white low-volume high base TC microplates (Greiner). After an overnight incubation, cells were treated with DMSO serial diluted compounds and incubated for 2 h at 37° C. After incubation, 2 μL/well of 4×Lysis Buffer (Cisbio 64KL1FDF), were added and incubated with cells for 30 min on gentle shaking. Finally, lysates were added with 2 μL/well of Eu cryptate (donor) and D2 (acceptor) conjugated antibodies (as provided by the Cisbio kit #64AERPEG/H) diluted 1:100 in Detection Buffer (as provided by the Cisbio kit #64AERPEG/H). Plates were then sealed and incubated at room temperature in the dark. After an overnight incubation, the TR-FRET signal was detected on a suitable reader (Envision, PerkinElmer). The lower the TR-FRET signal the higher the higher the SHP2 inhibition in cells.
The activity of each compound dilution was calculated as percentage between vehicle DMSO treated cells and no cells, 0% inhibition and 100% inhibition respectively. The percentage activity is fitted against the compound dilutions with a four-parameter logistic regression. The inflection point (i.e. the concentration at which half-maximal inhibition is achieved) is the IC50.

[2] = molecular target: SHP-2 enzyme (Met1-Leu525) (Homo sapiens (Human), UniProt Q06124); assay: SHP2 inhibition enzymatic assay; type: biochemical; details: 0.5 nM SHP-2 activated by 500 nM IRS1 peptide, 75 μM DiFMUP substrate; read-out: SHP2wt-IC50
Chain of SHP-2 enzyme (Met1-Leu525) (Q06124 1-525): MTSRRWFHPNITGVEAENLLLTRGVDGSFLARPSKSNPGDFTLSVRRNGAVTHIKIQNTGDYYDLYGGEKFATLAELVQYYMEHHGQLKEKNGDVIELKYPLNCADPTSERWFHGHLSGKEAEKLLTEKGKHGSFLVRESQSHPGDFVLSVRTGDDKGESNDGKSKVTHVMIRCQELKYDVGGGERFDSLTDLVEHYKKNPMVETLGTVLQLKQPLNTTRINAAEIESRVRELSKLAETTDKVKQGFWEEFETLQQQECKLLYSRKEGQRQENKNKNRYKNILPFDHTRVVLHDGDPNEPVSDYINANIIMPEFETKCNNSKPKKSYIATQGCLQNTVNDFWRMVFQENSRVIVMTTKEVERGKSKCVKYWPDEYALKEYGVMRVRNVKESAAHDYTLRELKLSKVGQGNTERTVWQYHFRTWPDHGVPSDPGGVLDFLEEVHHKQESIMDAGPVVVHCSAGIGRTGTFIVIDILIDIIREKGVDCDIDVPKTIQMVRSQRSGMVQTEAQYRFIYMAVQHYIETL
Experimental: The assay was performed as described in YP Chen et al, Nature (535)2016. Assay volume of 20 μL/well was assembled in 384 well black polystyrene low-binding microplates (Greiner), using the following buffer: 60 mM HEPES pH 7.2, 75 mM NaCl, 75 mM KCl, 1 mM EDTA pH 8, 0.05% tween-20, 5 mM DTT. The SHP-2 enzyme (synthetized by Origene, Met1-Leu525, cat #TP750155) was used at a final concentration of 0.5 nM. The enzyme was activated by 500 nM IRS1 peptide (sequence: H2N-LN(pY)IDLDLV(dPEG8)LST(pY)ASINFQK-amide SEQ ID No. 1) and incubated with 75 μM DiFMUP (Sigma) as substrate.
Briefly, DMSO serially diluted testing compounds were transferred to the bottom of the assay plate. SHP2 was then added together with the IRS1 peptide. 30 min post incubation, the DiFMUP substrate was added to the reaction and incubated 30 min at room temperature. Finally 5 μL of 160 μM bpV (Potassium bisperoxo[1,10-phenanthroline]oxovanadate [V], Sigma) were added to stop and quench the reaction. The fluorescence was detected by a microplate reader (Envision, PerkinElmer) according to the DiFMUP excitation and emission wavelength. The lower the fluorescence the higher the SHP2 inhibition. […] The percentage inhibition is fitted against the compound dilutions with a four-parameter logistic regression. The inflection point (i.e. the concentration at which half-maximal inhibition is achieved) is the IC50.

**Q.** Which IC50 [1] does the source give for `NC[C@@]1(c2ccccc2F)C2CCN(c3ccc4nc(Sc5ccnc(N)c5Cl)ccc4n3)CC21` (stereo in doubt) [Example 387, 4-((6-((1R,6S,7S)-7-(aminomethyl)-7-(2-fluorophenyl)-3-azabicyclo[4.1.0]heptan-3-yl)-1,5-naphthyridin-2-yl)thio)-3-chloropyridin-2-amine] here?
**A.** < 1000 nM

**Q.** And the IC50 [2]?
**A.** < 500 nM

**Q.** How did the IC50 [1] turn out when `Cc1nc(N2CCC3C(C2)C3(CN)c2ccsc2)c(CO)nc1-c1cccc(Cl)c1Cl` (centres unmarked) [Example 1, [3-[7-(aminomethyl)-7-(thiophen-3-yl)-3-azabicyclo[4.1.0]heptan-3-yl]-6-(2,3-dichlorophenyl)-5-methylpyrazin-2-yl]methanol] was run?
**A.** > 5000 nM

**Q.** What about the IC50 [2] of the same compound?
**A.** < 500 nM

**Q.** With `NCC1(c2cccnc2)C2CCN(c3cnc4c(-c5cccc(Cl)c5Cl)n[nH]c4n3)CC21` (centres unmarked) [Example 2, [3-[3-(2,3-dichlorophenyl)-1H-pyrazolo[3,4-b]pyrazin-6-yl]-7-(pyridin-3-yl)-3-azabicyclo[4.1.0]heptan-7-yl]methanamine] as the compound, how does the IC50 [1] read?
**A.** < 1000 nM

**Q.** And the IC50 [2]?
**A.** < 500 nM

**Q.** With `NCC1(c2ccccc2F)C2CCN(c3cnc4c(-c5cccc(Cl)c5Cl)n[nH]c4n3)CC21` (centres unmarked) [Example 3, (3-(3-(2,3-dichlorophenyl)-1H-pyrazolo[3,4-b]pyrazin-6-yl)-7-(2-fluorophenyl)-3-azabicyclo[4.1.0]heptan-7-yl)methanamine] as the compound, how does the IC50 [1] read?
**A.** < 1000 nM

**Q.** What about the IC50 [2] of the same compound?
**A.** < 500 nM

**Q.** How did the IC50 [1] turn out when `NCC1(c2ccccc2F)C2CCN(c3cnc4c(-c5cccc6ccsc56)n[nH]c4n3)CC21` (centres unmarked) [Example 4, (3-(3-(benzo[b]thiophen-7-yl)-1H-pyrazolo[3,4-b]pyrazin-6-yl)-7-(2-fluorophenyl)-3-azabicyclo[4.1.0]heptan-7-yl)methanamine] was run?
**A.** 1000 to 5000 nM

**Q.** What about the IC50 [2] of the same compound?
**A.** < 500 nM

**Q.** Which IC50 [1] does the source give for `NCC1(c2ccccc2F)C2CCN(c3cc4nc(Sc5ccnc(N)c5Cl)cnc4[nH]3)CC21` (centres unmarked) [Example 59, 4-((6-(7-(aminomethyl)-7-(2-fluorophenyl)-3-azabicyclo[4.1.0]heptan-3-yl)-5H-pyrrolo[2,3-b]pyrazin-2-yl)thio)-3-chloropyridin-2-amine] here?
**A.** < 1000 nM

**Q.** `Cc1cc([C@@]2(CN)[C@@H]3CCN(c4cnc5c(-c6cccc(-c7ncco7)c6Cl)n[nH]c5n4)C[C@@H]32)no1` [Example 111, ((1S,6R,7S)-3-(3-(2-chloro-3-(oxazol-2-yl)phenyl)-1H-pyrazolo[3,4-b]pyrazin-6-yl)-7-(5-methylisoxazol-3-yl)-3-azabicyclo[4.1.0]heptan-7-yl)methanamine] was tested. Which IC50 [1] did it give?
**A.** < 1000 nM

**Q.** For `Cc1cc(C(N)=O)ncc1-c1n[nH]c2nc(N3CC[C@@H]4[C@H](C3)[C@@]4(CN)c3ccccc3F)cnc12` [Example 307, 5-(6-((1S,6R,7R)-7-(aminomethyl)-7-(2-fluorophenyl)-3-azabicyclo[4.1.0]heptan-3-yl)-1H-pyrazolo[3,4-b]pyrazin-3-yl)-4-methylpicolinamide], which IC50 [1] is on record?
**A.** < 1000 nM

**Q.** With `Cc1c(-c2n[nH]c3nc(N4CC[C@@H]5[C@H](C4)[C@@]5(CN)c4cc(F)cc(F)c4)cnc23)ccc2nn(C)cc12` [Example 308, ((1S,6R,7R)-7-(3,5-difluorophenyl)-3-(3-(2,4-dimethyl-2H-indazol-5-yl)-1H-pyrazolo[3,4-b]pyrazin-6-yl)-3-azabicyclo[4.1.0]heptan-7-yl)methanamine] as the compound, how does the IC50 [1] read?
**A.** < 1000 nM

**Q.** With `N#CNC(=O)c1ccc(-c2n[nH]c3nc(N4CC[C@@H]5[C@H](C4)[C@@]5(CN)c4ccccc4F)cnc23)c(Cl)c1` [Example 310, 4-(6-((1S,6R,7R)-7-(aminomethyl)-7-(2-fluorophenyl)-3-azabicyclo[4.1.0]heptan-3-yl)-1H-pyrazolo[3,4-b]pyrazin-3-yl)-3-chloro-N-cyanobenzamide] as the compound, how does the IC50 [1] read?
**A.** > 5000 nM

**Q.** Which IC50 [1] does the source give for `NC[C@]1(c2ccccc2F)[C@@H]2CCN(c3cnc4c(-c5ccc(-c6cc(F)c(O)c(F)c6)cc5Cl)n[nH]c4n3)C[C@@H]21` [Example 313, 4′-(6-((1S,6R,7R)-7-(aminomethyl)-7-(2-fluorophenyl)-3-azabicyclo[4.1.0]heptan-3-yl)-1H-pyrazolo[3,4-b]pyrazin-3-yl)-3′-chloro-3,5-difluoro-[1,1′-biphenyl]-4-ol] here?
**A.** < 1000 nM

**Q.** With `NC[C@]1(c2ccccc2F)[C@@H]2CCN(c3cnc4c(-c5ccc(CC(N)=O)cc5Cl)n[nH]c4n3)C[C@@H]21` [Example 328, 2-(4-(6-((1S,6R,7R)-7-(aminomethyl)-7-(2-fluorophenyl)-3-azabicyclo[4.1.0]heptan-3-yl)-1H-pyrazolo[3,4-b]pyrazin-3-yl)-3-chlorophenyl)acetamide] as the compound, how does the IC50 [1] read?
**A.** > 5000 nM

**Q.** Which IC50 [1] does the source give for `NC[C@]1(c2ccccc2F)[C@@H]2CCN(c3nc4nc(Sc5ccnc(-n6cccn6)c5Cl)cnc4[nH]3)C[C@@H]21` [Example 342, ((1S,6R,7R)-3-(5-((3-chloro-2-(1H-pyrazol-1-yl)pyridin-4-yl)thio)-1H-imidazo[4,5-b]pyrazin-2-yl)-7-(2-fluorophenyl)-3-azabicyclo[4.1.0]heptan-7-yl)methanamine] here?
**A.** > 5000 nM

**Q.** `CC(C)(C)C#Cc1n[nH]c2nc(N3CC[C@@H]4[C@H](C3)[C@@]4(CN)c3ccccc3F)cnc12` [Example 366, ((1S,6R,7R)-3-(3-(3,3-dimethylbut-1-yn-1-yl)-1H-pyrazolo[3,4-b]pyrazin-6-yl)-7-(2-fluorophenyl)-3-azabicyclo[4.1.0]heptan-7-yl)methanamine] was tested. Which IC50 [1] did it give?
**A.** < 1000 nM

**Q.** With `NC[C@]1(c2ccccc2F)[C@@H]2CCN(c3cnc4c(-c5ccc(-c6nsc(O)n6)cc5Cl)n[nH]c4n3)C[C@@H]21` [Example 379, 3-(4-(6-((1S,6R,7R)-7-(aminomethyl)-7-(2-fluorophenyl)-3-azabicyclo[4.1.0]heptan-3-yl)-1H-pyrazolo[3,4-b]pyrazin-3-yl)-3-chlorophenyl)-1,2,4-thiadiazol-5-ol] as the compound, how does the IC50 [1] read?
**A.** > 5000 nM

**Q.** For `NC[C@]1(c2ccsn2)[C@@H]2CN(c3cnc4c(-c5ccc6nn(C(F)F)cc6c5Cl)n[nH]c4n3)C[C@@H]21` [Example 468, ((1R,5S,6r)-3-(3-(4-chloro-2-(difluoromethyl)-2H-indazol-5-yl)-1H-pyrazolo[3,4-b]pyrazin-6-yl)-6-(isothiazol-3-yl)-3-azabicyclo[3.1.0]hexan-6-yl)methanamine], which IC50 [1] is on record?
**A.** < 1000 nM

**Q.** Which IC50 [1] does the source give for `Cc1csc([C@@]2(CN)[C@@H]3CCN(c4cnc5c(-c6ccc(F)c7ncccc67)c[nH]c5n4)C[C@@H]32)n1` [Example 502, ((1S,6R,7S)-3-(7-(8-fluoroquinolin-5-yl)-5H-pyrrolo[2,3-b]pyrazin-3-yl)-7-(4-methylthiazol-2-yl)-3-azabicyclo[4.1.0]heptan-7-yl)methanamine] here?
**A.** < 1000 nM

**Q.** `Cc1csc([C@@]2(CN)[C@@H]3CN(c4cnc5c(-c6ccnc(-n7cccn7)c6Cl)n[nH]c5n4)C[C@@H]32)n1` [Example 516, ((1R,5S,6r)-3-(3-(3-chloro-2-(1H-pyrazol-1-yl)pyridin-4-yl)-1H-pyrazolo[3,4-b]pyrazin-6-yl)-6-(4-methylthiazol-2-yl)-3-azabicyclo[3.1.0]hexan-6-yl)methanamine] was tested. Which IC50 [1] did it give?
**A.** < 1000 nM

**Q.** How did the IC50 [1] turn out when `Cc1csc([C@@]2(CN)[C@@H]3CN(c4cnc(Sc5ccnc(-n6cccn6)c5Cl)cn4)C[C@@H]32)n1` [Example 520, ((1R,5S,6r)-3-(5-((3-chloro-2-(1H-pyrazol-1-yl)pyridin-4-yl)thio)pyrazin-2-yl)-6-(4-methylthiazol-2-yl)-3-azabicyclo[3.1.0]hexan-6-yl)methanamine] was run?
**A.** < 1000 nM

**Q.** Which IC50 [1] does the source give for `Cc1csc([C@@]2(CN)[C@@H]3CN(c4nc(C)n(-c5cccc(Cl)c5Cl)c(=O)c4Cl)C[C@@H]32)n1` [Example 526, 6-((1R,5S,6r)-6-(aminomethyl)-6-(4-methylthiazol-2-yl)-3-azabicyclo[3.1.0]hexan-3-yl)-5-chloro-3-(2,3-dichlorophenyl)-2-methylpyrimidin-4(3H)-one] here?
**A.** > 5000 nM

**Q.** How did the IC50 [2] turn out when `NC[C@]1(c2cc(F)ccc2F)[C@@H]2CCN(c3cnc4nc(-c5ccc6c(c5)CCC(=O)N6)ccc4n3)C[C@@H]21` [Example 531, 6-(2-((1S,6R,7R)-7-(aminomethyl)-7-(2,5-difluorophenyl)-3-azabicyclo[4.1.0]heptan-3-yl)pyrido[2,3-b]pyrazin-6-yl)-3,4-dihydroquinolin-2(1H)-one] was run?
**A.** < 500 nM
